How the values were obtained:
[1] = tested on: mRNA expressed from the genes (A) to (D) in rat liver; test: Behavior of genes (mRNA expression level, oligo-DNA microarray) in rat liver after 28-day oral administration; format: in vivo
Outline: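 Liver mRNA levels were compared with matched vehicle groups, with a shift of at least 1.5-fold up or down deemed significant unless its direction disagreed with other carcinogens. Test substances were dosed orally by gavage daily for 28 days to 5-week-old male F344 rats, four per group.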

[2] = tested on: liver; conditions: in vivo; cited from earlier work
[3] = tested on: rodent; conditions: in vivo; cited from earlier work
[4] = gene group (A), Unigene No. Rn.167075, mRNA vs vehicle control group
[5] = gene group (C), Unigene No. Rn.120914, mRNA vs vehicle control group
[6] = (C), Unigene Rn.120914, defined direction +, rat liver, oral once daily 28 days

SMILES: c1ccc2cc3c(ccc4ccccc43)cc2c1 [TS046, Benz[a]anthracene]
- Behavior of gene caused by administration of chemical substance, Gene No. 4846 ([1]; gene group (A), Unigene No. Rn.144554, mRNA vs vehicle control group): −
- Behavior of gene caused by administration of chemical substance, Gene No. 2026 [1, 4]: +
- Behavior of gene caused by administration of chemical substance, Gene No. 4218 [1, 4]: −
- Behavior of gene caused by administration of chemical substance, Gene No. 6182 ([1]; gene group (A), Unigene No. Rn.5834, mRNA vs vehicle control group): +
- Behavior of gene caused by administration of chemical substance, Gene No. 5600 ([1]; gene group (A), Unigene No. Rn.9836, mRNA vs vehicle control group): −
- Behavior of gene caused by administration of chemical substance, Gene No. 1494 ([1]; gene group (B), Unigene No. Rn.1430, mRNA vs vehicle control group): −
- Behavior of gene caused by administration of chemical substance, Gene No. 2045 ([1]; gene group (B), Unigene No. Rn.19329, mRNA vs vehicle control group): −
- Behavior of gene caused by administration of chemical substance, Gene No. 2203 ([1]; gene group (B), Unigene No. Rn.21240, mRNA vs vehicle control group): +
- Behavior of gene caused by administration of chemical substance, Gene No. 533 ([1]; gene group (C), Unigene No. Rn.106184, mRNA vs vehicle control group): −
- Behavior of gene caused by administration of chemical substance, Gene No. 725 ([1]; gene group (C), Unigene No. Rn.108075, mRNA vs vehicle control group): +
- Behavior of gene caused by administration of chemical substance, Gene No. 1163 ([1]; gene group (C), Unigene No. Rn.11766, mRNA vs vehicle control group): +
- Behavior of gene caused by administration of chemical substance, Gene No. 4973 ([1]; gene group (C), Unigene No. Rn.118529, mRNA vs vehicle control group): +
- Behavior of gene caused by administration of chemical substance, Gene No. 4095 ([1]; gene group (C), Unigene No. Rn.119024, mRNA vs vehicle control group): +
- Behavior of gene caused by administration of chemical substance, Gene No. 1334 [1, 5]: −
- Behavior of gene caused by administration of chemical substance, Gene No. 6620 [1, 5]: −
- Behavior of gene caused by administration of chemical substance, Gene No. 6303 ([1]; gene group (C), Unigene No. Rn.123063, mRNA vs vehicle control group): −
- Behavior of gene caused by administration of chemical substance, Gene No. 5878 ([1]; gene group (C), Unigene No. Rn.143213, mRNA vs vehicle control group): +
- Behavior of gene caused by administration of chemical substance, Gene No. 1131 ([1]; gene group (C), Unigene No. Rn.144946, mRNA vs vehicle control group): +
- Behavior of gene caused by administration of chemical substance, Gene No. 1562 ([1]; gene group (C), Unigene No. Rn.14744, mRNA vs vehicle control group): −
- Behavior of gene caused by administration of chemical substance, Gene No. 1741 ([1]; gene group (C), Unigene No. Rn.1647, mRNA vs vehicle control group): +
- Behavior of gene caused by administration of chemical substance, Gene No. 893 ([1]; gene group (C), Unigene No. Rn.164817, mRNA vs vehicle control group): +
- Behavior of gene caused by administration of chemical substance, Gene No. 6026 ([1]; gene group (C), Unigene No. Rn.167685, mRNA vs vehicle control group): −
- Behavior of gene caused by administration of chemical substance, Gene No. 154 ([1]; gene group (C), Unigene No. Rn.185941, mRNA vs vehicle control group): +
- Behavior of gene caused by administration of chemical substance, Gene No. 1993 ([1]; gene group (C), Unigene No. Rn.18728, mRNA vs vehicle control group): +
- Behavior of gene caused by administration of chemical substance, Gene No. 813 ([1]; gene group (C), Unigene No. Rn.201760, mRNA vs vehicle control group): +
- Behavior of gene caused by administration of chemical substance, Gene No. 2494 ([1]; gene group (C), Unigene No. Rn.23969, mRNA vs vehicle control group): −
- Behavior of gene caused by administration of chemical substance, Gene No. 2546 ([1]; gene group (C), Unigene No. Rn.24561, mRNA vs vehicle control group): +
- Behavior of gene caused by administration of chemical substance, Gene No. 3776 ([1]; gene group (C), Unigene No. Rn.43232, mRNA vs vehicle control group): +
- Behavior of gene caused by administration of chemical substance, Gene No. 3929 ([1]; gene group (C), Unigene No. Rn.4620, mRNA vs vehicle control group): −
- Behavior of gene caused by administration of chemical substance, Gene No. 1119 ([1]; gene group (C), Unigene No. Rn.9757, mRNA vs vehicle control group): +
- Behavior of gene caused by administration of chemical substance, Gene No. 6742 ([1]; gene group (C), Unigene No. Rn.9779, mRNA vs vehicle control group): +
- Behavior of gene caused by administration of chemical substance, Gene No. 5634 ([1]; gene group (C), Unigene No. Rn.9862, mRNA vs vehicle control group): +
- Behavior of gene caused by administration of chemical substance, Gene No. 5726 ([1]; gene group (D), Unigene No. Rn.9939, mRNA vs vehicle control group): +
- Liver carcinogenicity [2]: Cr−
- Carcinogenicity [3]: C+

SMILES: CCOC(N)=O [TS054, Urethane]
- Behavior of gene caused by administration of chemical substance, Gene No. 4846 ([1]; (A), Unigene Rn.144554, defined direction +, rat liver, oral once daily 28 days): +
- Behavior of gene caused by administration of chemical substance, Gene No. 4218 ([1]; (A), Unigene Rn.167075, defined direction +, rat liver, oral once daily 28 days, significant = 1.5 times or more or 1/1.5 or less of control): −
- Behavior of gene caused by administration of chemical substance, Gene No. 2026 ([1]; (A), Unigene Rn.167075, defined direction −, rat liver, oral once daily 28 days): −
- Behavior of gene caused by administration of chemical substance, Gene No. 6182 ([1]; (A), Unigene Rn.5834, defined direction +, rat liver, oral once daily 28 days): +
- Behavior of gene caused by administration of chemical substance, Gene No. 5600 ([1]; (A), Unigene Rn.9836, defined direction +, rat liver, oral once daily 28 days): −
- Behavior of gene caused by administration of chemical substance, Gene No. 1494 ([1]; (B), Unigene Rn.1430, defined direction −, rat liver, oral once daily 28 days): −
- Behavior of gene caused by administration of chemical substance, Gene No. 2045 ([1]; (B), Unigene Rn.19329, defined direction +, rat liver, oral once daily 28 days): −
- Behavior of gene caused by administration of chemical substance, Gene No. 2203 ([1]; (B), Unigene Rn.21240, defined direction +, rat liver, oral once daily 28 days): −
- Behavior of gene caused by administration of chemical substance, Gene No. 533 ([1]; (C), Unigene Rn.106184, defined direction +, rat liver, oral once daily 28 days): −
- Behavior of gene caused by administration of chemical substance, Gene No. 725 ([1]; (C), Unigene Rn.108075, defined direction −, rat liver, oral once daily 28 days): −
- Behavior of gene caused by administration of chemical substance, Gene No. 1163 ([1]; (C), Unigene Rn.11766, defined direction +, rat liver, oral once daily 28 days): −
- Behavior of gene caused by administration of chemical substance, Gene No. 4973 ([1]; (C), Unigene Rn.118529, defined direction −, rat liver, oral once daily 28 days): −
- Behavior of gene caused by administration of chemical substance, Gene No. 4095 ([1]; (C), Unigene Rn.119024, defined direction −, rat liver, oral once daily 28 days): −
- Behavior of gene caused by administration of chemical substance, Gene No. 1334 [1, 6]: −
- Behavior of gene caused by administration of chemical substance, Gene No. 6620 [1, 6]: −
- Behavior of gene caused by administration of chemical substance, Gene No. 6303 ([1]; (C), Unigene Rn.123063, defined direction −, rat liver, oral once daily 28 days): −
- Behavior of gene caused by administration of chemical substance, Gene No. 5878 ([1]; (C), Unigene Rn.143213, defined direction −, rat liver, oral once daily 28 days): −
- Behavior of gene caused by administration of chemical substance, Gene No. 1131 ([1]; (C), Unigene Rn.144946, defined direction −, rat liver, oral once daily 28 days): −
- Behavior of gene caused by administration of chemical substance, Gene No. 1562 ([1]; (C), Unigene Rn.14744, defined direction −, rat liver, oral once daily 28 days): −
- Behavior of gene caused by administration of chemical substance, Gene No. 1741 ([1]; (C), Unigene Rn.1647, defined direction −, rat liver, oral once daily 28 days): −
- Behavior of gene caused by administration of chemical substance, Gene No. 893 ([1]; (C), Unigene Rn.164817, defined direction +, rat liver, oral once daily 28 days): −
- Behavior of gene caused by administration of chemical substance, Gene No. 6026 ([1]; (C), Unigene Rn.167685, defined direction −, rat liver, oral once daily 28 days): −
- Behavior of gene caused by administration of chemical substance, Gene No. 154 ([1]; (C), Unigene Rn.185941, defined direction −, rat liver, oral once daily 28 days): −
- Behavior of gene caused by administration of chemical substance, Gene No. 1993 ([1]; (C), Unigene Rn.18728, defined direction −, rat liver, oral once daily 28 days): −
- Behavior of gene caused by administration of chemical substance, Gene No. 813 ([1]; (C), Unigene Rn.201760, defined direction +, rat liver, oral once daily 28 days): −
- Behavior of gene caused by administration of chemical substance, Gene No. 2494 ([1]; (C), Unigene Rn.23969, defined direction +, rat liver, oral once daily 28 days): −
- Behavior of gene caused by administration of chemical substance, Gene No. 2546 ([1]; (C), Unigene Rn.24561, defined direction −, rat liver, oral once daily 28 days): −
- Behavior of gene caused by administration of chemical substance, Gene No. 3776 ([1]; (C), Unigene Rn.43232, defined direction −, rat liver, oral once daily 28 days): −
- Behavior of gene caused by administration of chemical substance, Gene No. 3929 ([1]; (C), Unigene Rn.4620, defined direction +, rat liver, oral once daily 28 days): −
- Behavior of gene caused by administration of chemical substance, Gene No. 1119 ([1]; (C), Unigene Rn.9757, defined direction +, rat liver, oral once daily 28 days): −
- Behavior of gene caused by administration of chemical substance, Gene No. 6742 ([1]; (C), Unigene Rn.9779, defined direction +, rat liver, oral once daily 28 days): −
- Behavior of gene caused by administration of chemical substance, Gene No. 5634 ([1]; (C), Unigene Rn.9862, defined direction −, rat liver, oral once daily 28 days): −
- Behavior of gene caused by administration of chemical substance, Gene No. 5726 ([1]; (D), Unigene Rn.9939, defined direction −, rat liver, oral once daily 28 days): +
- Liver carcinogenicity [2]: Cr+
- Carcinogenicity [3]: C+

— US20110039721A1, “METHOD FOR PREDICTION ABOUT CARCINOGENICITY OF SUBSTANCE IN RODENT” (Chemicals Evaluation and Research Institute, priority 2007, published 2011)
